Test results published in patent publication US20250162973A1, “METHODS OF SYNTHESIS AND USES OF AGRIMOL COMPOUNDS” (Versitech Limited, priority 2022, published 2025).

Assays:
NCI-H460 cells [1] = test: Apoptosis assays (Hoechst, annexin V/PI, Western blotting); type: cell-based, human
Method: FIG. 4 is a graph showing AGB induced apoptosis in NCI-H460 cells by the Annexin-V/PI double-staining assay. After treating with AGB for 24 h and 36 h, respectively, cells were stained with annexin V-FITC and propidium iodide and analyzed by flow cytometry.
The mitochondrial fission and mitochondrial membrane potential depolarization are involved in the induction of cell apoptosis and also play a central role to the apoptotic pathway. Therefore, several apoptosis assays were performed. […] Induction of apoptosis by AGB in NCI-H460 cells was further supported through monitoring PARP, caspase-9, and caspase-3 cleavage as well as through changes in the levels of a panel of proteins commonly involved in apoptotic signaling via Western blotting experiments (data not shown).

[2] = Serum biochemical examination in MTD test; type: in vivo; conditions: 12.8 mg/kg
Method: The MTD test in this study was done in collaboration with Tianjin Institute of Pharmaceutical Research (TIPR). […] A total of 80 mice were randomly assigned into four groups (10 male and 10 female mice in each group) in this study. Four groups included 16.0 mg/kg of AGB group, 12.8 mg/kg of AGB group, vehicle control group (10% DMSO+0.8% Tween-80 in normal saline), and the blank control group (normal saline).
Then, the body weights of surviving animals were measured on the 1st, 3rd, 7th and 14th days, respectively. At the end of experiment, the hematology, blood biochemistry, anatomical examination, and histopathology examination were performed in both vehicle control group and the MTD group (12.8 mg/kg). The data were presented as the mean±standard deviation.

Hsp60 client Mito-RFP = test: Mito-RFP / EGFP fluorescence in transfected cells; type: cell-based
NCI-H460 cells [3] = test: Cell colony formation (clonogenic) assay; type: cell-based, human
Method: For the colony formation assay, cells were treated with indicated concentrations of AGB for 8 h, then AGB was then removed and 200 cells were trypsinized and seeded into a new 12-well cell culture plate containing 1.5 ml of complete cell growth medium. After cells were grown for 14 days, cells were then fixed with ethanol followed a staining by crystal violet (0.05%, w/v, in water) for 15 min. The cell colonies were captured under the microscope and the number of colonies was calculated by ImageJ (version 1.50i, NIH, USA, internet site imagej.nih.gov).

HSP60 = HSP60 (Homo sapiens, UniProt P10809); test: CETSA / ITDRFCETSA immunoblot; type: binding; parameters: dose dependent recovery of soluble HSP60 in cells subjected to heating; endogenous in cells; host or cells: NCI-H460; conditions: CETSA melt curve, NCI-H460 cells
Method: Immunoblot experiments were carried out for validating of the three identified potential targets. […] In the isothermal dose-response fingerprint (ITDRFCETSA) experiment, treatment of cells with increasing concentrations of AGB led to dose dependent recovery of soluble HSP60 in cells subjected to heating at protein denaturation temperature at 60° C.

[4] = tested on: ER stress in NCI-H460 cells; test: ER stress (ER tracker staining, Western Blot of markers); type: cell-based, human
Description: The disruption of Golgi structure leads to impaired glycosylation processes, resulting in misfolded proteins which would accumulate to induce ER stress. The relationship between AGB and ER stress in cancer cells was examined. The morphology of ER was disrupted and the content was lessened using ER tracker staining (images not shown). In order to verify that NCI-H460 cells developed ER stress response when treated with AGB, the expression of two ER stress markers, Glucose-regulated protein (GRP) 78 (GRP78) and C/-EBP homologous protein (CHOP), was examined. GAPDH was used as a loading control. […] Generally, there are three sensors to initiate ER stress responses, including IRE1, PERK and ATF6. Upon the accumulation of unfolded proteins, BiP preferentially binds to the unfolded proteins, which results in the release of PERK, IRE1, and ATF6. Once released from BiP, PERK becomes activated and dimerized. Activated PERK phosphorylates eIF2α to suppress the overall […] of mRNAs.

Sequence of HSP60 (P10809 27-573): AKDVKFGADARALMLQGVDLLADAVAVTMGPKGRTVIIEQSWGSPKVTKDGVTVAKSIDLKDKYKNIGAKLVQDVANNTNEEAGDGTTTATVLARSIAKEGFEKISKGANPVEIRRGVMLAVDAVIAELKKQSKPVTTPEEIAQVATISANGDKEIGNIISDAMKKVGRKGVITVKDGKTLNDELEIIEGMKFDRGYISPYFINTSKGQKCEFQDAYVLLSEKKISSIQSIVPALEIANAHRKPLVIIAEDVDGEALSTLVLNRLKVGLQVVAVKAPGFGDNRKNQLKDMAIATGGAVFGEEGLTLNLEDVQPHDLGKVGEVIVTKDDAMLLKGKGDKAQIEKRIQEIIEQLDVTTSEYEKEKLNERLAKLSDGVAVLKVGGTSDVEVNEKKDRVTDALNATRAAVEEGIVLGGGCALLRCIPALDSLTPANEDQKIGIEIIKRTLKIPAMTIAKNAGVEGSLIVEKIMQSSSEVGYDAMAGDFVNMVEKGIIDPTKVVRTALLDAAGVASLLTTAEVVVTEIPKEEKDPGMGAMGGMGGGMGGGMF

Question: For `CCCC(=O)c1c(O)c(Cc2c(O)c(Cc3c(O)c(C)c(OC)c(C(=O)CCC)c3O)c(O)c(C(=O)[C@@H](C)CC)c2O)c(O)c(C)c1OC` [AGB, Agrimol B], which Hoechst staining (NCI-H460 cells [1]) is on record?
Answer: Its Hoechst staining is “chromatin condensation and fragmentation”.

Question: And the “release of mitochondrial factors to cytosol” value (NCI-H460 cells [1])?
Answer: The value was “release of cytochrome c and apoptosis inducing factor AIF”.

Question: And the “annexin V and PI flow cytometry” value (NCI-H460 cells [1]; 24 h and 36 h AGB treatment)?
Answer: Its value is “increase of the early and late apoptotic cell populations”.

Question: And the “serum biochemical abnormalities vs vehicle control” value ([2]; 14 days after administration)?
Answer: Its value is “no obvious abnormalities”.

Question: What about the ALB ([2]; day 14) of the same compound?
Answer: The ALB was 17.73 ± 5.07 g/L.

Question: What about the ALP ([2]; day 14) of the same compound?
Answer: The ALP was 153.67 ± 37.63 U/L.

Question: And the ALT ([2]; day 14)?
Answer: The ALT was 26.09 ± 2.23 U/L.

Question: What about the AST ([2]; day 14) of the same compound?
Answer: The AST was 85.74 ± 15.96 U/L.

Question: And the BUN ([2]; day 14)?
Answer: Its BUN is 4.58 ± 2.24 mmol/L.

Question: And the CK ([2]; day 14)?
Answer: Its CK is 953.09 ± 480.50 U/L.

Question: What about the CREA ([2]; day 14) of the same compound?
Answer: Its CREA is 34.11 ± 3.61 µmol/L.

Question: And the GGT ([2]; day 14)?
Answer: Its GGT is 0.07 ± 0.08 U/L.

Question: And the GLU ([2]; day 14)?
Answer: The GLU was 9.10 ± 3.07 mmol/L.

Question: And the LDH ([2]; day 14)?
Answer: The LDH was 403.54 ± 92.68 U/L.

Question: And the T.BIL ([2]; day 14)?
Answer: Its T.BIL is 1.75 ± 0.45 µmol/L.

Question: What about the T.CHO ([2]; day 14) of the same compound?
Answer: Its T.CHO is 3.68 ± 1.60 mmol/L.

Question: What about the TG ([2]; day 14) of the same compound?
Answer: The TG was 1.41 ± 0.59 mmol/L.

Question: What about the TP ([2]; day 14) of the same compound?
Answer: Its TP is 45.93 ± 13.71 g/L.

Question: And the EGFP fluorescence (Hsp60 client Mito-RFP; cells transfected with EGFP-expressing construct)?
Answer: The EGFP fluorescence was “did not show changes in fluorescence”.

Question: And the “mitochondrial fluorescence (Mito-RFP) vs vehicle” value (Hsp60 client Mito-RFP; cells transfected with Mito-RFP)?
Answer: Its value is “significant reduction of mitochondrial fluorescence”.

Question: What about the “AGB concentration over which colonies numbers were significantly reduced” value (NCI-H460 cells [3]; 8 h treatment, colonies counted after two weeks) of the same compound?
Answer: The value was “over 2.5 μM”.

Question: And the “concentration giving significant reduction of cell colony formation” value (NCI-H460 cells [3]; clonogenicity assay)?
Answer: The value was “around 4 μM”.

Question: What about the “increase in the protein melting temperature (Tm) vs DMSO control” value (HSP60) of the same compound?
Answer: The value was 3.2 °C.

Question: And the “phosphorylation status of eIF2α” value ([4]; AGB-treated NCI-H460)?
Answer: The value was “eIF2α was phosphorylated”.

Question: What about the “morphology of ER” value ([4]; ER tracker staining) of the same compound?
Answer: Its value is “disrupted”.

Question: And the “expression of ER stress markers GRP78 and CHOP” value ([4]; Western Blot, time-dependent)?
Answer: The value was “significantly increased”.
